Data from ChEMBL document CHEMBL4507315 (2021).

What was measured:
[1] = biological target: Interleukin-1 receptor-associated kinase 4 (Homo sapiens) (UniProt Q9NWZ3); settings: Compound concentration 100.0 nM
[2] = biological target: Activin receptor type-1-like (Homo sapiens) (UniProt P37023); settings: Compound concentration 100.0 nM
[3] = biological target: Tyrosine-protein kinase ABL1 (Homo sapiens) (UniProt P00519); settings: Compound concentration 100.0 nM
[4] = biological target: Calcium/calmodulin-dependent protein kinase type II subunit beta (Homo sapiens) (UniProt Q13554); settings: Compound concentration 100.0 nM
[5] = biological target: Ribosomal protein S6 kinase alpha-4 (Homo sapiens) (UniProt O75676); settings: Compound concentration 100.0 nM
[6] = biological target: Myotonin-protein kinase (Homo sapiens) (UniProt Q09013); settings: Compound concentration 100.0 nM
Chain of Myotonin-protein kinase (Homo sapiens) (Q09013 whole entry): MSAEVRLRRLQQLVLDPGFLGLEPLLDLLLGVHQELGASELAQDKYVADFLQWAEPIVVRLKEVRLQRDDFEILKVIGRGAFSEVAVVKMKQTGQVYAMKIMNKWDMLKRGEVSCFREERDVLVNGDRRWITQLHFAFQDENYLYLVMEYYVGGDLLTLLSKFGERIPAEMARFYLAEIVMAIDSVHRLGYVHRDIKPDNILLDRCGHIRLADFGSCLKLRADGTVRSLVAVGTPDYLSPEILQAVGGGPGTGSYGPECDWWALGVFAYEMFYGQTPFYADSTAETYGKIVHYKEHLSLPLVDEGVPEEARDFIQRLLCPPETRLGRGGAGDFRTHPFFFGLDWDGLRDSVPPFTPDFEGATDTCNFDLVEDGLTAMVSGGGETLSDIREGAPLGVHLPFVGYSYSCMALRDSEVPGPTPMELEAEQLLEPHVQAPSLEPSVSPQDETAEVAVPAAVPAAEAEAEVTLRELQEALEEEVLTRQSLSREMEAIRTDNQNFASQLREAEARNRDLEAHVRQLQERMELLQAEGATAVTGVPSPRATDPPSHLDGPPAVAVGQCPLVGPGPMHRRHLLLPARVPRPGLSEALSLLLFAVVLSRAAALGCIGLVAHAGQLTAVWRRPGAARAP

[7] = biological target: Calcium/calmodulin-dependent protein kinase type II subunit alpha (Homo sapiens) (UniProt Q9UQM7); settings: Compound concentration 100.0 nM
[8] = biological target: Serine/threonine-protein kinase Chk2 (Homo sapiens) (UniProt O96017); settings: Compound concentration 100.0 nM
[9] = biological target: Fibroblast growth factor receptor 3 (Homo sapiens) (UniProt P22607); settings: Compound concentration 100.0 nM
[10] = biological target: Serine/threonine-protein kinase SIK2 (Homo sapiens) (UniProt Q9H0K1); settings: Compound concentration 100.0 nM
[11] = tested on: Hepatocyte growth factor receptor (Homo sapiens), P08581 [Y1235D]; settings: Compound concentration 100.0 nM
[12] = biological target: Ephrin type-A receptor 7 (Homo sapiens) (UniProt Q15375); settings: Compound concentration 100.0 nM
Chain of Ephrin type-A receptor 7 (Homo sapiens) (Q15375 28-998 limits assumed): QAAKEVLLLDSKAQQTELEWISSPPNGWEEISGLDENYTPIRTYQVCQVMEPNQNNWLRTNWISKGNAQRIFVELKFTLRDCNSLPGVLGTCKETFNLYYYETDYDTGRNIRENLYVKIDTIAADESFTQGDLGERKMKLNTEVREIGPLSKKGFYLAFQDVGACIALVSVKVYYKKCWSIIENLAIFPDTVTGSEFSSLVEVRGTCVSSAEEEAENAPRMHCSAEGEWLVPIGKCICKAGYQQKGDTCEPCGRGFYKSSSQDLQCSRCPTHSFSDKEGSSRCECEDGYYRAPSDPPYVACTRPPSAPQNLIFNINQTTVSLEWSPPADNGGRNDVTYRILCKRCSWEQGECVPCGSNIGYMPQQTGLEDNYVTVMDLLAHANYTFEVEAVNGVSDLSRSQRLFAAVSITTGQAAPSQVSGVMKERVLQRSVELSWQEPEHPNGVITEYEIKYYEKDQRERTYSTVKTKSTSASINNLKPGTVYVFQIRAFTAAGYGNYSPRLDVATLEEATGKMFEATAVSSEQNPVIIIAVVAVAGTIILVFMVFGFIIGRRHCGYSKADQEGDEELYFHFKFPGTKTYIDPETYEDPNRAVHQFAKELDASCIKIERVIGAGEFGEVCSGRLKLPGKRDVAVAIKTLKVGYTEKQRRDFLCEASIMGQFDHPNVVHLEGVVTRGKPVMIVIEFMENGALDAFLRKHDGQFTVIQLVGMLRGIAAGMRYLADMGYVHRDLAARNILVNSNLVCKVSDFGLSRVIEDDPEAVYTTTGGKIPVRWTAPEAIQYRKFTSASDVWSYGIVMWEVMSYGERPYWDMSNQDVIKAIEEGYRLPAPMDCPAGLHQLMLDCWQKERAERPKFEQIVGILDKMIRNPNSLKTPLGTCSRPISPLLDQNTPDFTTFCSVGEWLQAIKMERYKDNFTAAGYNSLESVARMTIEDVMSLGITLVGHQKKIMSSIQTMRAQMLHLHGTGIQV

[13] = biological target: Mitogen-activated protein kinase kinase kinase 14 (Homo sapiens) (UniProt Q99558); settings: Compound concentration 100.0 nM
[14] = biological target: Serine/threonine-protein kinase PLK1 (Homo sapiens) (UniProt P53350); settings: Compound concentration 100.0 nM
[15] = tested on: Tyrosine-protein kinase ABL1 (Homo sapiens), P00519 [Q252H]; settings: Compound concentration 100.0 nM
[16] = biological target: Death-associated protein kinase 3 (Homo sapiens) (UniProt O43293); settings: Compound concentration 100.0 nM
[17] = tested on: Receptor-type tyrosine-protein kinase FLT3 (Homo sapiens), P36888 [D835H]; settings: Compound concentration 100.0 nM
[18] = biological target: Cyclin-dependent kinase-like 1 (Homo sapiens) (UniProt Q00532); settings: Compound concentration 100.0 nM
Chain of Cyclin-dependent kinase-like 1 (Homo sapiens) (Q00532 whole entry): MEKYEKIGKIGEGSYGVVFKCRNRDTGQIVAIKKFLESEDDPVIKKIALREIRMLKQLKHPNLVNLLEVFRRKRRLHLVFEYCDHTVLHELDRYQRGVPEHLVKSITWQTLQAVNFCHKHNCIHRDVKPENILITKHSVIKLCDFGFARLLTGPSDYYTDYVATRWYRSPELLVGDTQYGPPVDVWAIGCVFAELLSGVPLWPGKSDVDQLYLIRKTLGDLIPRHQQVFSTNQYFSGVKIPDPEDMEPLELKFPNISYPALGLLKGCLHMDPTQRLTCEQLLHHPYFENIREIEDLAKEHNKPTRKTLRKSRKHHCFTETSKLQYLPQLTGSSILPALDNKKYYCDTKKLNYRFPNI

[19] = tested on: Mast/stem cell growth factor receptor Kit (Homo sapiens), P10721 [V559D,V654A]; settings: Compound concentration 100.0 nM
[20] = biological target: Serine/threonine-protein kinase WNK3 (Homo sapiens) (UniProt Q9BYP7); settings: Compound concentration 100.0 nM
Chain of Serine/threonine-protein kinase WNK3 (Homo sapiens) (Q9BYP7 whole entry): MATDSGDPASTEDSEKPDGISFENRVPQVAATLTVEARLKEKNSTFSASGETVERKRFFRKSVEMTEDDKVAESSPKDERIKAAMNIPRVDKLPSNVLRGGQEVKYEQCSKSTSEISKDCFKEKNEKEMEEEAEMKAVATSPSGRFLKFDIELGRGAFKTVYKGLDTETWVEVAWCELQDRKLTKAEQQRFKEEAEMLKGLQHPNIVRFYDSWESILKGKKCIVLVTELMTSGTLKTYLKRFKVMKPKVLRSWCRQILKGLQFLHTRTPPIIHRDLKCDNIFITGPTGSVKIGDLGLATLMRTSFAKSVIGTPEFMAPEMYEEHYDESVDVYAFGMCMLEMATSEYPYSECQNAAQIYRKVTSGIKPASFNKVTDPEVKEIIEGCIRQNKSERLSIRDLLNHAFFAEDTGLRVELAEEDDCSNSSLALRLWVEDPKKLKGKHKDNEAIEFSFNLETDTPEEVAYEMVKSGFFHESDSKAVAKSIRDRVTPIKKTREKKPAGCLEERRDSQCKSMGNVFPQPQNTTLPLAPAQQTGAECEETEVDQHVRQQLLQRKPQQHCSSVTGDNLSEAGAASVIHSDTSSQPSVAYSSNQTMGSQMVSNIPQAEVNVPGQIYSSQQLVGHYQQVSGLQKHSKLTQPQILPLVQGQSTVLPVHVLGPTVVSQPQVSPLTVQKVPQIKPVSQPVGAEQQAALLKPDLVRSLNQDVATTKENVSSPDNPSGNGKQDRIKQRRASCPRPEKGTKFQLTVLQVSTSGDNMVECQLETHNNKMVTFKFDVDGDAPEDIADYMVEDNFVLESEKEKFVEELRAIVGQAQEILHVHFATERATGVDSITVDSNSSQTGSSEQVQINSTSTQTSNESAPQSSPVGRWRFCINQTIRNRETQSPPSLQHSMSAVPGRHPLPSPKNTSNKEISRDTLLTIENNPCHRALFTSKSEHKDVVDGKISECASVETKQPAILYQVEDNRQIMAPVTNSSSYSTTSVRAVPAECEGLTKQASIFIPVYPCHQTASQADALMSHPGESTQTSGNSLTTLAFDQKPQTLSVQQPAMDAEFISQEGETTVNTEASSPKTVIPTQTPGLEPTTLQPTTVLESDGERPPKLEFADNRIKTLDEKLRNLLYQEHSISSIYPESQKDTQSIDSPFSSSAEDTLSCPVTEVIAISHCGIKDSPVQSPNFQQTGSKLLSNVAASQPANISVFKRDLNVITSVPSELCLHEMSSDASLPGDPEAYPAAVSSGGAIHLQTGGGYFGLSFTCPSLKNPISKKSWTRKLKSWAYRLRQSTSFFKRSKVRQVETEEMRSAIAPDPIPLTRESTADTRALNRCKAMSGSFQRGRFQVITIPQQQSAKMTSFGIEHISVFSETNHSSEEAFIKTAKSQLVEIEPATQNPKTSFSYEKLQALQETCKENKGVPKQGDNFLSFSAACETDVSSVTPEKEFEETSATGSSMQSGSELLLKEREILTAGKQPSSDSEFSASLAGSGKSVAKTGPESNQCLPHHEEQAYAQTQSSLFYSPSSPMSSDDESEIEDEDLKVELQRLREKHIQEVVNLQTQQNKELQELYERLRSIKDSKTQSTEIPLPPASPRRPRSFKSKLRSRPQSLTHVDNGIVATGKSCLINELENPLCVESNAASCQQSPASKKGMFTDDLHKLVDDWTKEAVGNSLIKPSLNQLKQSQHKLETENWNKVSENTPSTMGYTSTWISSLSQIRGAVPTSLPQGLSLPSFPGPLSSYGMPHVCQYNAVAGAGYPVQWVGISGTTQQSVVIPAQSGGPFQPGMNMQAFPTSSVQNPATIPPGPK

[21] = biological target: Mitogen-activated protein kinase kinase kinase 11 (Homo sapiens) (UniProt Q16584); settings: Compound concentration 100.0 nM
[22] = biological target: Serine/threonine-protein kinase PAK 3 (Homo sapiens) (UniProt O75914); settings: Compound concentration 100.0 nM
Chain of Serine/threonine-protein kinase PAK 3 (Homo sapiens) (O75914 whole entry, looked up, the tested form may be a part): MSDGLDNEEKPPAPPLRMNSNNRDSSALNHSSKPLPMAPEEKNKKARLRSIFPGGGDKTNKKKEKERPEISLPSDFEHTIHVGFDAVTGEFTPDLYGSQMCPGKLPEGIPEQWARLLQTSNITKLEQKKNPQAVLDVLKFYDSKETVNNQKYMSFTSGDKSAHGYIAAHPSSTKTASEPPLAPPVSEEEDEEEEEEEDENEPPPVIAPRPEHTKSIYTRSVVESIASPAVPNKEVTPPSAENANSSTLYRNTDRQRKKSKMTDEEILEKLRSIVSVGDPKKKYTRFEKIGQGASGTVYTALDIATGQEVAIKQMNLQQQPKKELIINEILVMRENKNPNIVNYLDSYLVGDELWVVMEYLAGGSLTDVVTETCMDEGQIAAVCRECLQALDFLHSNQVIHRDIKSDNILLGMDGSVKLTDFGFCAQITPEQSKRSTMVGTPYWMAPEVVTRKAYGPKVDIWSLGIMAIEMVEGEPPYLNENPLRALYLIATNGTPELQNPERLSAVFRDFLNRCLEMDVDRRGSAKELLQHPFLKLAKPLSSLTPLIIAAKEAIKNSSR

[23] = biological target: Epithelial discoidin domain-containing receptor 1 (Homo sapiens) (UniProt Q08345); settings: Compound concentration 100.0 nM
[24] = tested on: Tyrosine-protein kinase ABL1 (Homo sapiens), P00519 [Y253F]; settings: Compound concentration 100.0 nM
[25] = biological target: Platelet-derived growth factor receptor beta (Homo sapiens) (UniProt P09619); settings: Compound concentration 100.0 nM
[26] = biological target: Aurora kinase B (Homo sapiens) (UniProt Q96GD4); settings: Compound concentration 100.0 nM
[27] = biological target: 5-hydroxytryptamine receptor 2A (Homo sapiens) (UniProt P28223); settings: Compound concentration 10.0 uM
[28] = biological target: Macrophage-stimulating protein receptor (Homo sapiens) (UniProt Q04912); settings: Compound concentration 100.0 nM
[29] = biological target: Proto-oncogene tyrosine-protein kinase Src (Homo sapiens) (UniProt P12931); settings: Compound concentration 100.0 nM
[30] = biological target: 5-hydroxytryptamine receptor 1D (Homo sapiens) (UniProt P28221); settings: Compound concentration 10.0 uM
[31] = biological target: Dual serine/threonine and tyrosine protein kinase (Homo sapiens) (UniProt Q6XUX3); settings: Compound concentration 100.0 nM
[32] = biological target: MAP kinase-activated protein kinase 5 (Homo sapiens) (UniProt Q8IW41); settings: Compound concentration 100.0 nM
[33] = tested on: Phosphatidylinositol 4,5-bisphosphate 3-kinase catalytic subunit alpha isoform (Homo sapiens), P42336 [M1043I]; settings: Compound concentration 100.0 nM
[34] = biological target: Atypical kinase COQ8B, mitochondrial (Homo sapiens) (UniProt Q96D53); settings: Compound concentration 100.0 nM
[35] = biological target: Mitogen-activated protein kinase kinase kinase 13 (Homo sapiens) (UniProt O43283); settings: Compound concentration 100.0 nM
[36] = biological target: MAP kinase-interacting serine/threonine-protein kinase 1 (Homo sapiens) (UniProt Q9BUB5); settings: Compound concentration 100.0 nM
[37] = biological target: Mitogen-activated protein kinase kinase kinase 19 (Homo sapiens) (UniProt Q56UN5); settings: Compound concentration 100.0 nM
[38] = biological target: Ephrin type-B receptor 3 (Homo sapiens) (UniProt P54753); settings: Compound concentration 100.0 nM
[39] = biological target: Serine/threonine-protein kinase TAO1 (Homo sapiens) (UniProt Q7L7X3); settings: Compound concentration 100.0 nM
Histamine H1 receptor = Histamine H1 receptor (Homo sapiens, UniProt P35367); settings: Compound concentration 10.0 uM
[40] = biological target: Serine/threonine-protein kinase MARK2 (Homo sapiens) (UniProt Q7KZI7); settings: Compound concentration 100.0 nM
[41] = biological target: LIM domain kinase 2 (Homo sapiens) (UniProt P53671); settings: Compound concentration 100.0 nM
[42] = biological target: Muscarinic acetylcholine receptor M3 (Homo sapiens) (UniProt P20309); settings: Compound concentration 10.0 uM
[43] = biological target: 5-hydroxytryptamine receptor 5A (Homo sapiens) (UniProt P47898); settings: Compound concentration 10.0 uM
[44] = biological target: Cyclin-dependent kinase 3 (Homo sapiens) (UniProt Q00526); settings: Compound concentration 100.0 nM

Chain of Interleukin-1 receptor-associated kinase 4 (Homo sapiens) (Q9NWZ3 whole entry): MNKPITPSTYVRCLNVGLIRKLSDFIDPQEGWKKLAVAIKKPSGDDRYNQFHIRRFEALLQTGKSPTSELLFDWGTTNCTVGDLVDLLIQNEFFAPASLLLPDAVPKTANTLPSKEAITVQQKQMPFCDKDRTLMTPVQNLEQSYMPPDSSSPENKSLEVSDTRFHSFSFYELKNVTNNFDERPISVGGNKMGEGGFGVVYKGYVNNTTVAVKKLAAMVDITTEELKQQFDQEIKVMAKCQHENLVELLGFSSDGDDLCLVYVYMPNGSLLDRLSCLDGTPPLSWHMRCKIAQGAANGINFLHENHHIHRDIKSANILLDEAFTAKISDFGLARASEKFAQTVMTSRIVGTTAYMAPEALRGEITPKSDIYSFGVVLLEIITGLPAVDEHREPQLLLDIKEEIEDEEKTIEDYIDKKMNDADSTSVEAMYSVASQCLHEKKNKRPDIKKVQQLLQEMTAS

**Q.** How did the residual activity [1] turn out when `Nc1c(C(=O)NCc2ccc(C(=O)NCCCC3CCCCC3)cc2)cnn1-c1ccccc1` [SR-318] was run?
**A.** The residual activity was 100%.

**Q.** What about the residual activity [2] of the same compound?
**A.** Its residual activity is 100%.

**Q.** What about the residual activity [3] of the same compound?
**A.** The residual activity was 97%.

**Q.** What about the residual activity [4] of the same compound?
**A.** Its residual activity is 100%.

**Q.** And the residual activity [5]?
**A.** The residual activity was 98%.

**Q.** What about the residual activity [6] of the same compound?
**A.** The residual activity was 77%.

**Q.** What about the residual activity [7] of the same compound?
**A.** The residual activity was 100%.

**Q.** And the residual activity [8]?
**A.** The residual activity was 88%.

**Q.** And the residual activity [9]?
**A.** The residual activity was 100%.

**Q.** And the residual activity [10]?
**A.** The residual activity was 100%.

**Q.** And the residual activity [11]?
**A.** Its residual activity is 94%.

**Q.** And the residual activity [12]?
**A.** Its residual activity is 100%.

**Q.** What about the residual activity [13] of the same compound?
**A.** Its residual activity is 100%.

**Q.** And the residual activity [14]?
**A.** Its residual activity is 100%.

**Q.** And the residual activity [15]?
**A.** Its residual activity is 87%.

**Q.** And the residual activity [16]?
**A.** Its residual activity is 100%.

**Q.** What about the residual activity [17] of the same compound?
**A.** Its residual activity is 100%.

**Q.** And the residual activity [18]?
**A.** The residual activity was 100%.

**Q.** What about the residual activity [19] of the same compound?
**A.** Its residual activity is 100%.

**Q.** What about the residual activity [20] of the same compound?
**A.** The residual activity was 92%.

**Q.** And the residual activity [21]?
**A.** The residual activity was 76%.

**Q.** And the residual activity [22]?
**A.** The residual activity was 100%.

**Q.** And the residual activity [23]?
**A.** The residual activity was 43%.

**Q.** What about the residual activity [24] of the same compound?
**A.** Its residual activity is 100%.

**Q.** What about the residual activity [25] of the same compound?
**A.** The residual activity was 100%.

**Q.** What about the residual activity [26] of the same compound?
**A.** Its residual activity is 81%.

**Q.** And the inhibition [27]?
**A.** The inhibition was 23.7%.

**Q.** What about the residual activity [28] of the same compound?
**A.** The residual activity was 100%.

**Q.** What about the residual activity [29] of the same compound?
**A.** The residual activity was 100%.

**Q.** And the inhibition [30]?
**A.** The inhibition was 27.6%.

**Q.** And the residual activity [31]?
**A.** The residual activity was 100%.

**Q.** What about the residual activity [32] of the same compound?
**A.** The residual activity was 93%.

**Q.** And the residual activity [33]?
**A.** The residual activity was 100%.

**Q.** And the residual activity [34]?
**A.** Its residual activity is 100%.

**Q.** What about the residual activity [35] of the same compound?
**A.** The residual activity was 100%.

**Q.** What about the residual activity [36] of the same compound?
**A.** The residual activity was 82%.

**Q.** What about the residual activity [37] of the same compound?
**A.** The residual activity was 77%.

**Q.** And the residual activity [38]?
**A.** Its residual activity is 96%.

**Q.** And the residual activity [39]?
**A.** The residual activity was 91%.

**Q.** And the inhibition (Histamine H1 receptor)?
**A.** Its inhibition is 14.7%.

**Q.** What about the residual activity [40] of the same compound?
**A.** The residual activity was 65%.

**Q.** What about the residual activity [41] of the same compound?
**A.** Its residual activity is 100%.

**Q.** And the inhibition [42]?
**A.** Its inhibition is 25.2%.

**Q.** And the inhibition [43]?
**A.** The inhibition was 9.6%.

**Q.** What about the residual activity [44] of the same compound?
**A.** The residual activity was 100%.

**Q.** Which results are given for `O=C(NCCCC1CCCCC1)c1ccc(CNC(=O)c2cnn(-c3ccccc3)c2C(F)(F)F)cc1` [SR-321]?
**A.** residual activity [1]: 100%; residual activity [2]: 100%; residual activity [3]: 88%; residual activity [4]: 96%; residual activity [5]: 90%; residual activity [6]: 83%; residual activity [7]: 100%; residual activity [8]: 100%; residual activity [9]: 100%; residual activity [10]: 100%; residual activity [11]: 100%; residual activity [12]: 86%; residual activity [13]: 90%; residual activity [14]: 93%; residual activity [15]: 100%; residual activity [16]: 92%; residual activity [17]: 100%; residual activity [18]: 80%; residual activity [19]: 100%; residual activity [20]: 100%; residual activity [21]: 100%; residual activity [22]: 100%; residual activity [23]: 100%; residual activity [24]: 98%; residual activity [25]: 100%; residual activity [26]: 95%; inhibition [27]: 8.57%; residual activity [28]: 100%; residual activity [29]: 100%; inhibition [30]: -8.35%; residual activity [31]: 100%; residual activity [32]: 100%; residual activity [33]: 68%; residual activity [34]: 100%; residual activity [35]: 100%; residual activity [36]: 98%; residual activity [37]: 89%; residual activity [38]: 79%; residual activity [39]: 96%; inhibition (Histamine H1 receptor): 63%; residual activity [40]: 100%; residual activity [41]: 100%; inhibition [42]: 19.5%; inhibition [43]: 17%; residual activity [44]: 100%
